The results in this text go back to publication PMC6219988 (Biochemistry, 2018).

In the test the test system is PTP1B. In words: PTP1B-catalyzed hydrolysis of pNPP in the presence of inhibitors. To be noted: IC50 at 20 mM pNPP. The class given is biochemical.

For the molecule `CC(C)C1C=C2CCC3C(C)(C(=O)O)CCCC3(C)C2CC1` (single isomer, unassigned; diaa) [DiAA, dihydroabietic acid], the “potency (IC50) relative to AA” value (ratio vs AA) is 3 fold. Also, the “potency (IC50) relative to DeAA” value (ratio vs DeAA) was determined as 7 fold.
